One assay has as its system H358 cells. The assay can be described thus: Cell activity experiment: activity test of H358 cells (MTT, 5 days). Type of assay: cell-based. To be noted: 5 days incubation, absorbance 492 nm. The method, then: Example: Cell Activity Experiment
1. Cells: H358 purchased from Shanghai EK-Bioscience Biotechnology Co., Ltd.
2. Reagents: RPMI 1640 medium, Tryple, MTT (5 mg/mL), DMSO, and DPBS.
3. Instruments: an incubator at 37° C. and 5% CO2, a UTRAO microplate reader, a biosafety cabinet, a cell counting plate, and an Optec optical microscope.
4. Experimental consumables: 96-well plate Item No.: 3599, and 96-well round-bottomed dispensing plate.
Experimental Steps of Activity Test of H358 Cells:
1. Plating: Cells in the logarithmic growth phase were digested with Tryple and terminated with a fresh medium, and the cells were counted; and the cell concentration was adjusted to 55555 cells/mL with a fresh medium, wherein 90 μL was added to each well, and those on edges were filled with sterile DPBS.
2. The plate was incubated in the incubator at 37° C. and 5% CO2 for 24 h, so that the cells cover the bottom of the well by about 50%.
3. Drug preparation for experimental group: The drug was dissolved in DMSO to prepare a 20 mmol/L stock solution; the stock solution was further diluted with DMSO to 2 mmol/L, which was serially 3-fold diluted to form an […]-concentration gradient, resulting in a 200× serial compound solution; 10 μL of the serial compound solution was taken and added to 190 μLμL of RPMI1640 medium to obtain a 10× serial compound solution; and 10 μL of the 10× compound solution was taken and added to 90 μL 96-well cell culture plate, with three replicates per grade. The concentration gradient of the compound in the 96-well cell culture plate was […], 1.524158 nM, 4.572474 nM, 13.717420 nM, 41.152260 nM, 123.456800 nM, 370.370400 nM, 1111.111000 nM, 3333.333000 nM, and 10000.000000 nM, with 100 μL per well, and the final concentration of DMSO was 0.5%.
The control group contained the same volume of solvent as the experimental group and was diluted with a complete medium, with 100 μL per well.
4. Incubation was carried out for 5 days in an incubator with 5% CO2 at 37° C.
5. After 5 days, 10 μL of an MTT solution (5 mg/mL) was added to each well, and the culture was continued for 4 h.
6. The culture was terminated, and the culture solution was carefully sucked out of the well.
7. 150 μL of dimethyl sulfoxide (DMSO) was added to each of the null wells in the experimental group and the control group; and after shaking at a medium speed for 10 s, the crystal was fully dissolved, and the optical absorbance value thereof was measured at a wavelength of 492 nm.
The compound `C=CC(=O)N1CCN(c2c(C#N)c(OC[C@@H]3CCCN3C)nc3cc(-c4cccc5c4CCCC5)c(Cl)cc23)C[C@@H]1CC#N` [Example 622] yielded an IC50 of 231 nM. As for `C=CC(=O)N1CCN(c2nc(OC[C@@H]3CCCN3C)nc3c(F)c(-c4cccc5c4CC4CC54)ncc23)C[C@@H]1CC#N` (single isomer, unassigned) [Example 874], the IC50 turned out to be 429 nM. Compound `C=C(F)C(=O)N1CCN(c2nc(OC[C@@H]3CCCN3C)nc3c(F)c(-c4cccc5c4CC4CC54)ccc23)C[C@@H]1CC#N` (stereo partly drawn) [Example 872] came in with an IC50 of 8.4 nM. Still for that read-out and setting: with `C=CC(=O)N1CCN(c2nc(OC[C@@]34CCCN3C[C@H](F)C4)nc3c(F)c(-c4cccc5c4CC4CC54)ncc23)C[C@@H]1CC#N` (single isomer, unassigned) [Example 877] the figure was 9.5 nM; with `C=CC(=O)N1CCN(c2nc(OC[C@@H]3CCCN3C)nc3c(F)c(-c4cccc5c4CCCC5)c(Cl)cc23)C[C@@H]1CC#N` [Example 74], 25 nM.

Still in this assay, the particulars now being: Homo sapiens, NCI-H358, 120 h, 5 days incubation, absorbance 492 nm.
Turning to `C=CC(=O)N1CCN(c2nc(OCC34CCCN3CCC4)nc3c(F)c(-c4cncc5c4CCCC5)ncc23)C[C@@H]1CC#N` [Example 37, (S)-2-(1-acryloyl-4-(8-fluoro-2-((tetrahydro-1H-pyrrolizin-7a(5H)-yl)methoxy)-7-(5,6,7,8-tetrahydroisoquinolin-4-yl)pyridino[4,3-d]pyrimidin-4-yl)piperazin-2-yl)acetonitrile], the IC50 worked out at 15 nM. Turning to `C=C(F)C(=O)N1CCN(c2nc(OCC3(CN4CCCC4)CC3)nc3c(F)c(-c4cccc5c4C4CC4C5)ccc23)C[C@@H]1CC#N` (single isomer, unassigned) [Example 870], half-maximal inhibition (IC50) was put at 7.2 nM.

For `C=C(F)C(=O)N1CCN(c2nc(OC[C@@H]3CCCN3C)nc3c(F)c(-c4cccc5c4CC4CC54)c(O)cc23)C[C@@H]1CC#N` (stereo partly drawn) [Example 945], the IC50 came to 155 nM. On the same count and under the same terms, with `C=C(F)C(=O)N1CCN(c2nc(OC[C@@]34CCCN3C[C@H](F)C4)nc3c(F)c(-c4cccc5c4C4CC4C5)ncc23)C[C@@H]1CC#N` (stereo partly drawn) [Example 68] the figure was 0.33 nM; with `C=C(F)C(=O)N1CCN(c2nc(OC[C@@H]3C[C@@H](F)CN3C)nc3c(F)c(-c4cncc5c4CCCC5)ncc23)C[C@@H]1CC#N` [Example 36], 120 nM. On the same count and under the same terms, the figure for `C=C(F)C(=O)N1CC[C@@H]2[C@H]1CN2c1nc(OCC23CCCN2CCC3)nc2c(F)c(-c3ccc(F)c4c3CCCC4)ncc12` [Example 30] is 60 nM; for `C=C(F)C(=O)N1CCN(c2nc(OC[C@@H]3CCCN3C)nc3c(F)c(-c4cccc5c4C4CC4C5)ncc23)C[C@@H]1CC#N` (stereo partly drawn) [Example 55, 2-((2S)-4-(8-fluoro-2-(((S)-1-methylpyrrolidin-2-yl)methoxy)-7-(1,1a,6,6a-tetrahydrocyclopropa[a]inden-2-yl)pyridino[4,3-d]pyrimidin-4-yl)-1-(2-fluoroacryloyl)piperazin-2-yl)acetonitrile] it is 160 nM. The same measure, in the same setting: the figure for `C=CC(=O)N1CCN(c2nc(OCC34CCCN3CCC4)nc3cc(-c4cccc5cccc(Cl)c45)ccc23)C[C@@H]1CC#N` [Example 81] is 5.5 nM; for `C=C(F)C(=O)N1CC[C@@H]2[C@H]1CN2c1nc(OCC23CCCN2CCC3)nc2c(F)c(-c3cncc4c3CCCC4)ncc12` [Example 46, 2-fluoro-1-(((1R,5R)-6-(8-fluoro-2-((tetrahydro-1H-pyrrolizin-7a(5H)-yl)methoxy))-7-(5,6,7,8-tetrahydroisoquinolin-4-yl)pyridino[4,3-d]pyrimidin-4-yl)-2,6-diazabicyclo[3.2.0]hept-2-yl)prop-2-en-1-one] it is 30 nM; for `C=CC(=O)N1CC[C@@H]2[C@H]1CN2c1nc(OC[C@@H]2CCCN2C)nc2c(F)c(-c3ccc(F)c4c3CCCC4)ncc12` [Example 25] it is 10 nM. In turn, `C=C(F)C(=O)N1CCN(c2nc(OC[C@@H]3CCCN3C)nc3c(F)c(-c4cccc5c4SCCC5)ncc23)C[C@@H]1CC#N` [Example 53, 2-((S)-4-(8-fluoro-2-(((S)-1-methylpyrrolidin-2-yl)methoxy)-7-(thiochroman-8-yl)pyridino[4,3-d]pyrimidin-4-yl)-1-(2-fluoroacryloyl)piperazin-2-yl)acetonitrile] gave a half-inhibitory concentration (IC50) of 180 nM. Compound `C=CC(=O)N1CCN(c2nc(OC[C@@]34CCCN3C[C@H](F)C4)nc3c(F)c(-c4cncc5c4CCCC5)ncc23)C[C@@H]1CC#N` [Example 39] yielded an IC50 of 8 nM. For the compound `C=CC(=O)N1CC[C@H]2[C@H]1CN2c1nc(OCC23CCCN2CCC3)nc2cc(-c3cccc4ccc(F)c(Cl)c34)c(Cl)cc12` [Example 472, 1-((1R,5S)-6-(6-chloro-7-(8-chloro-7-fluoronaphthalen-1-yl)-2-((tetrahydro-1H-pyrrolizin-7a(5H)-yl)methoxy)quinazolin-4-yl)-2,6-diazabicyclo[3.2.0]hept-2-yl)prop-2-en-1-one], it took 40 nM to reach half-maximal inhibition (IC50). `C=CC(=O)N1CCN(c2nc(OC[C@@H]3C[C@@H](F)CN3C)nc3c(F)c(-c4cccc5ccc(F)c(Cl)c45)ccc23)C[C@@H]1CC#N` [Example 362] came in with an IC50 of 4.6 nM. On the same count and under the same terms, the figure for `C=CC(=O)N1CCN(C2=C(C#N)C(OC[C@@H]3C[C@@H](F)CN3C)=NC3C=C(c4cccc5ccc(F)c(Cl)c45)C=CC23)C[C@@H]1CC#N` (stereo partly drawn) [Example 625] is 850 nM. On the same count and under the same terms, the figure for `C=CC(=O)N1CCN(c2nc(OC[C@@]34CCCN3C[C@H](F)C4)nc3nc(-c4cccc5cccc(Cl)c45)ccc23)C[C@@H]1CC#N` [Example 260] is 10 nM; for `C=C(F)C(=O)N1CCN(c2nc(OCC34CCCN3CCC4)nc3cc(-c4cccc5cccc(Cl)c45)ccc23)C[C@@H]1CC#N` [Example 82, (S)-2-(4-(7-(8-chloronaphthalen-1-yl)-2-((tetrahydro-1H-pyrrolizin-7a(5H)-yl)methoxy)quinazolin-4-yl)-1-(2-fluoroacryloyl)piperazin-2-yl)acetonitrile] it is 12 nM. Same read-out and setting: the figure for `C=CC(=O)N1CCN(c2nc(OC[C@@H]3CCCN3C)nc3c(F)c(-c4ccc(F)c5c4SCCC5)ncc23)C[C@@H]1CC#N` [Example 54, 2-((S)-1-acryloyl-4-(8-fluoro-7-(5-fluorothiochroman-8-yl)-2-(((S)-1-methylpyrrolidin-2-yl)methoxy)pyridino[4,3-d]pyrimidin-4-yl)piperazin-2-yl)acetonitrile] is 70 nM; for `C=CC(=O)N1CCN(c2nc(OC[C@@H]3C[C@@H](F)CN3C)nc3cc(-c4cccc5cccc(Cl)c45)ccc23)C[C@@H]1CC#N` [Example 79, 2-((S)-1-acryloyl-4-(7-(8-chloronaphthalen-1-yl)-2-((((2S,4R)-4-fluoro-1-methylpyrrolidin-2-yl]methoxy))quinazolin-4-yl)piperazin-2-yl)acetonitrile] it is 20 nM.

As for `C=C(F)C(=O)N1CCN(c2nc(OC[C@@]34CCCN3C[C@H](F)C4)nc3c(F)c(-c4ccc(F)c5c4CCCC5)ncc23)C[C@@H]1CC#N` [Example 24], the IC50 worked out at 15 nM. Still for that read-out and setting: the figure for `C=C(F)C(=O)N1CC[C@@H]2[C@H]1CN2c1nc(OC[C@@H]2C[C@@H](F)CN2C)nc2c(F)c(-c3ccc(F)c4c3CCCC4)ncc12` [Example 28] is 80 nM.

Take `C=C(F)C(=O)N1CCN(C2=C(C#N)C(OC[C@@]34CCCN3C[C@H](F)C4)=NC3C=C(c4cccc5ccc(F)c(Cl)c45)C=CC23)C[C@@H]1CC#N` (stereo partly drawn) [Example 629]: half-maximal inhibition (IC50) was put at 120 nM. The same measure, in the same setting: the figure for `C=C(F)C(=O)N1CCN(c2nc(OCC34CCCN3CCC4)nc3cc(-c4cccc5c4CCCC5)ccc23)C[C@@H]1CC#N` [Example 115] is 45 nM; for `C=CC(=O)N1CCC2[C@H]1CN2c1nc(OCC23CCCN2CCC3)nc2c(F)c(-c3cccc4c3CCCC4)ccc12` (stereo partly drawn) [Example 372] it is 5 nM. Same read-out and setting: the figure for `C=CC(=O)N1CCN(c2nc(OC[C@@]34CCCN3C[C@H](F)C4)nc3cc(-c4cccc5cccc(Cl)c45)ccc23)C[C@@H]1CC#N` [Example 83] is 3.2 nM.

Turning to `C=C(F)C(=O)N1CC[C@@H]2[C@H]1CN2c1nc(OC[C@@H]2CCCN2C)nc2c(F)c(-c3ccc(F)c4c3CCCC4)ncc12` [Example 26], 40 nM corresponded to half-maximal inhibition (IC50). For `C=C(F)C(=O)N1CCN(c2nc(OC[C@@]34CCCN3C[C@H](F)C4)nc3c(F)c(-c4cncc5c4CCCC5)ncc23)C[C@@H]1CC#N` [Example 40], it took 30 nM to reach half-maximal inhibition (IC50).

`C=C(F)C(=O)N1CC[C@@H]2[C@H]1CN2c1nc(OC[C@@H]2C[C@@H](F)CN2C)nc2c(F)c(-c3cccc4c3CCCC4)ncc12` [Example 12] came in with an IC50 of 80 nM.

Source of the values: patent publication US20240109893A1, “PREPARATION AND APPLICATION METHOD OF HETEROCYCLIC COMPOUNDS AS KRAS INHIBITOR” (SHANGHAI KECHOW PHARMA, INC., priority 2020, published 2024).
